From patent US12167742B2, “Nutritional composition comprising 6′SL and LNT in combination to improve the gastrointestinal barrier function” (SOCIETE DES PRODUITS NESTLE S.A., priority 2018, dated 2024)

Molecular target: GPR35 (Homo sapiens, UniProt Q9HC97)
Test: PathHunter β-Arrestin assay, activation of GPR35 expressed in cultured cells (DiscoverX)
Type: cell-based
Details: for activation of GPR35: Example 2, HMO screening, highest concentration tested 10 mM; for EC50: dose-response by 3× dilutions from 10 mM, duplicate, β-arrestin recruitment
Description: Six human milk oligosaccharides (LNnT, LNT, 2′FL, diFL, 6′SL and 3′SL) were screened for their ability to activate the GPR35 receptor in an in vitro assay. The screening was conducted by DiscoverX (Fremont, Ca, USA) using the PathHunter β-Arresin assay. This assay monitors the activation of GPR35 expressed in cultured cells, using Enzyme Fragment Complementation with β-galactosidase (β-Gal) as the functional reporter. […] EA is fused to β-Arrestin and PK is fused to GPR35. When the GPR35 is activated and β-Arrestin is recruited to the receptor, PK and EA complementation occurs, restoring β-Gal activity, which is measured using chemiluminescent Detection Reagents.
The GPR35 cell line was expanded from frozen stocks and cultured according to standard procedures. Cells were seeded in a total volume of 20 μL into white walled, 384-well microplates and incubated at 37° C. for the appropriate time prior to testing. All testing was done in duplicate.
HMO samples were shipped to DiscoverX as concentrated stocks in Phosphate Buffered saline. On the test day, a 5× compound working intermediate was prepared in PBS. An amount of 5 μL of 5× sample was added to cells and incubated at room temperature for 3 to 5 hours.
Assay signal was generated through a single addition of 12.5 μL (50% v/v) of PathHunter Detection reagent cocktail, followed by one-hour incubation at room temperature. Microplates were read following signal generation with a PerkinElmer Envision™ instrument for chemiluminescent signal detection.
Zaprinast (which is known to be an activator of GPR35) was used as positive control.
Percentage activity was calculated using the following formula: % Activity=100%×(mean RLU of test sample−mean RLU of vehicle control)/(mean MAX control ligand−mean RLU of vehicle control).
Dose-responses were generated by iterative 3× dilutions of the highest concentration tested (10 mM).
The samples were diluted in 1×PBS (pH˜7) at 5× concentrations and sent to DiscoverX. The GPR35 activation assay was performed as described in Example 2.

Sequence of GPR35 (Q9HC97 whole entry): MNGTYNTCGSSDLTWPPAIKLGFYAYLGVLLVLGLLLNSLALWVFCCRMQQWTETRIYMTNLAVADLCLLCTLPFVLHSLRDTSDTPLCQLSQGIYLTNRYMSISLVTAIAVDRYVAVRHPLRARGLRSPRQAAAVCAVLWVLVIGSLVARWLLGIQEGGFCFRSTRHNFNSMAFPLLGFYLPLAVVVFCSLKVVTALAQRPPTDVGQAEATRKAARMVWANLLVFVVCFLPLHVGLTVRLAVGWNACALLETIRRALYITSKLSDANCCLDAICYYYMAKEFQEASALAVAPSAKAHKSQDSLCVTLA

Row | Structure (SMILES) | activation of GPR35 | EC50 [mM]
1 | CC(=O)N[C@H]1[C@H](O[C@H]2[C@@H](O)[C@@H](CO)O[C@@H](O[C@H]3[C@H](O)[C@@H](O)C(O)O[C@@H]3CO)[C@@H]2O)O[C@H](CO)[C@@H](O[C@@H]2O[C@H](CO)[C@H](O)[C@H](O)[C@H]2O)[C@@H]1O (mixture of isomers) [LNnT, lacto-N-neotetraose] | No activation | 
2 | CC(=O)N[C@H]1[C@H]([C@H](O)[C@H](O)CO)O[C@@](O[C@H]2[C@@H](O)[C@@H](CO)O[C@@H](O[C@H]3[C@H](O)[C@@H](O)C(O)O[C@@H]3CO)[C@@H]2O)(C(=O)O)C[C@@H]1O (some centres unmarked) [3′SL, 3′ sialyllactose] | No activation | 
3 | CC(=O)N[C@H]1[C@H]([C@H](O)[C@H](O)CO)O[C@@](OC[C@H]2O[C@@H](O[C@H]3[C@H](O)[C@@H](O)[C@H](O)O[C@@H]3CO)[C@H](O)[C@@H](O)[C@H]2O)(C(=O)O)C[C@@H]1O [6′SL, 6′-sialyllactose] |  | 6.5
4 | CC(=O)N[C@H]1[C@H](O[C@H]2[C@@H](O)[C@@H](CO)O[C@@H](O[C@H]3[C@H](O)[C@@H](O)C(O)O[C@@H]3CO)[C@@H]2O)O[C@H](CO)[C@@H](O)[C@@H]1O[C@@H]1O[C@H](CO)[C@H](O)[C@H](O)[C@H]1O (some centres unmarked) [LNT, lacto-N-tetraose] |  | 4.5
5 | C[C@@H]1O[C@@H](O[C@H]2[C@H](O[C@H]3[C@H](O[C@@H]4O[C@@H](C)[C@@H](O)[C@@H](O)[C@@H]4O)[C@@H](O)C(O)O[C@@H]3CO)O[C@H](CO)[C@H](O)[C@@H]2O)[C@@H](O)[C@H](O)[C@@H]1O (some centres unmarked) [diFL, difucosyllactose] | No activation | 
